# Experimental data published in PubChem BioAssay (NCI).
#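 These data come from cells grown in 96-well plates and exposed to compound for 48 hours at five concentrations. The concentration for full growth arrest is given as TGI.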
# Tests used:
# Test in all cases: NCI tumour cell line growth inhibition, 48 h
# 786-0 renal = system: 786-0 renal
# ACHN renal = system: ACHN renal
# COLO 205 colon = system: COLO 205 colon
# HCT-15 colon = system: HCT-15 colon
# HOP-92 NSCLC = system: HOP-92 NSCLC
# HT29 colon = system: HT29 colon
# LOX IMVI melanoma = system: LOX IMVI melanoma
# NCI-H226 lung = system: NCI-H226 lung
# NCI-H522 lung = system: NCI-H522 lung
# NCI/ADR-RES ovarian = system: NCI/ADR-RES ovarian
# SK-MEL-28 melanoma = system: SK-MEL-28 melanoma
# SK-MEL-5 melanoma = system: SK-MEL-5 melanoma
SMILES,TGI (786-0 renal),TGI (ACHN renal),TGI (COLO 205 colon),TGI (HCT-15 colon),TGI (HOP-92 NSCLC),TGI (HT29 colon),TGI (LOX IMVI melanoma),TGI (NCI-H226 lung),TGI (NCI-H522 lung),TGI (NCI/ADR-RES ovarian),TGI (SK-MEL-28 melanoma),TGI (SK-MEL-5 melanoma)
CCC(=O)O[C@H]1CC[C@H]2[C@@H]3CCC4=C/C(=N/NC(=O)c5cccc6c(=O)c7ccccc7[nH]c56)CC[C@]4(C)[C@H]3CC[C@]12C,10.3 µM,> 25 µM,> 25 µM,> 25 µM,> 25 µM,> 25 µM,> 25 µM,> 25 µM,> 25 µM,> 25 µM,> 25 µM,> 25 µM
O=C1CCCCc2cccc(O)c21,> 100 µM,> 100 µM,> 100 µM,> 100 µM,> 100 µM,> 100 µM,> 100 µM,> 100 µM,> 100 µM,> 100 µM,> 100 µM,> 100 µM
O=[N+]([O-])c1cccnc1NCC1(CO)CC(Cc2ccccc2)C1 (centres undefined),> 100 µM,> 100 µM,> 100 µM,> 100 µM,60.1 µM,> 100 µM,> 100 µM,> 100 µM,> 100 µM,> 100 µM,> 100 µM,> 100 µM
COC(=O)c1c(C)cccc1CC1Cc2c(C)cccc2C1=O (centres undefined),> 100 µM,> 100 µM,48.3 µM,> 100 µM,70.9 µM,> 100 µM,33.6 µM,95.8 µM,57.8 µM,64.2 µM,> 100 µM,37.5 µM
O[C@@H]1C[C@@H]2N[C@@](O)(C[C@@H]2O)[C@H]1O,> 100 µM,> 100 µM,> 100 µM,> 100 µM,> 100 µM,> 100 µM,> 100 µM,> 100 µM,> 100 µM,> 100 µM,> 100 µM,> 100 µM
Brc1ccc2[nH]cc(-c3nc(-c4c[nH]c5ccccc45)cs3)c2c1,8.55 µM,8.75 µM,2.76 µM,6.89 µM,7.86 µM,3.56 µM,4.68 µM,8.13 µM,3.73 µM,11.2 µM,20.9 µM,4.01 µM
N#CC1(C#N)NC(c2ccsc2)C(C#N)(C#N)NC1c1ccsc1 (centres undefined),> 100 µM,> 100 µM,> 100 µM,> 100 µM,> 100 µM,> 100 µM,> 100 µM,> 100 µM,> 100 µM,> 100 µM,> 100 µM,> 100 µM
CN(C)Cc1cc(N=Nc2ccccc2)cc(CN(C)C)c1O,> 100 µM,> 100 µM,> 100 µM,> 100 µM,> 100 µM,> 100 µM,> 100 µM,> 100 µM,> 100 µM,> 100 µM,> 100 µM,> 100 µM
O=[N+]([O-])c1ccc2nc(/C=C(\O)c3ccc(F)cc3)c(/C=C(\O)c3ccc(F)cc3)nc2c1,39.7 µM,36.6 µM,> 100 µM,> 100 µM,> 100 µM,> 100 µM,> 100 µM,89 µM,> 100 µM,> 100 µM,> 100 µM,> 100 µM
O=C(CSCC(=O)N/N=C\c1ccc(-c2ccccc2)cc1)N/N=C\c1ccc(-c2ccccc2)cc1,> 100 µM,55.9 µM,> 100 µM,> 100 µM,> 100 µM,76.6 µM,32.4 µM,84.5 µM,37.2 µM,> 100 µM,> 100 µM,> 100 µM
COc1cc2c(cc1OC)CC(N=[N+]=[N-])c1cc(OC)c(OC)cc1/C=C\2 (centres undefined),> 100 µM,> 100 µM,> 100 µM,> 100 µM,> 100 µM,> 100 µM,> 100 µM,> 100 µM,> 100 µM,> 100 µM,> 100 µM,63.1 µM
COCCOCCOC1=C(Cl)C(=O)c2c(O)ccc(O)c2C1=O,2.61 µM,3.5 µM,2.45 µM,3.42 µM,3.95 µM,8.73 µM,4.59 µM,35.4 µM,2.99 µM,9.14 µM,5.12 µM,3.79 µM
COc1ccc2c(c1)c1c(n2CCN2CCCCC2)-c2ccccc2CC1,34.5 µM,33.3 µM,29.5 µM,24.5 µM,31.9 µM,17.2 µM,40.4 µM,19.3 µM,21.8 µM,33.2 µM,38.5 µM,37.3 µM
COC(=O)CCC12CCC(O1)c1ccccc12 (centres undefined),> 100 µM,> 100 µM,> 100 µM,> 100 µM,> 100 µM,> 100 µM,> 100 µM,> 100 µM,> 100 µM,> 100 µM,> 100 µM,> 100 µM
C=CC[C@H](C)CCC(=O)N1[C@H]2CC3CC[C@@]2(CS1(=O)=O)C3(C)C,> 100 µM,> 100 µM,> 100 µM,74.9 µM,> 100 µM,49 µM,83 µM,> 100 µM,99 µM,> 100 µM,> 100 µM,51.3 µM
CNC(=S)N/N=C/c1cccc(C)n1,98.5 µM,> 96.5 µM,> 85.2 µM,> 100 µM,> 100 µM,> 100 µM,> 73.8 µM,> 83.9 µM,> 86.2 µM,63.3 µM,> 100 µM,> 74.9 µM
COCc1cc2c(cc1/C=C/[N+](=O)[O-])OCO2,33.5 µM,30.9 µM,38.4 µM,36.8 µM,36.8 µM,34.6 µM,67.9 µM,42.9 µM,41.2 µM,47 µM,25.2 µM,37.6 µM
Cc1c(NC(=S)Nc2ccc(Cl)cc2)c(=O)n(-c2ccccc2)n1C,> 100 µM,> 100 µM,> 100 µM,> 100 µM,> 100 µM,> 100 µM,> 100 µM,> 100 µM,> 100 µM,> 100 µM,> 100 µM,> 100 µM
C#C[C@]1(O)CC[C@H]2[C@@H]3CCc4cc(OC(=O)c5cccc6cc7ccccc7nc56)ccc4[C@H]3CC[C@@]21C,96.4 µM,> 100 µM,43.7 µM,> 100 µM,> 100 µM,> 100 µM,66 µM,> 100 µM,50.5 µM,> 100 µM,> 100 µM,29.5 µM
COc1ccc(N=C(Nc2ccc(OC)cc2)C(=Nc2ccc(OC)cc2)Nc2ccc(OC)cc2)cc1,> 100 µM,> 100 µM,> 100 µM,> 100 µM,> 100 µM,> 100 µM,> 100 µM,> 100 µM,> 100 µM,> 100 µM,> 100 µM,> 100 µM
CCOc1cc(NC(C)=O)ccc1C(=O)NN1C(=O)/C(=C/c2cc(OC)c(OC)c(OC)c2)N=C1c1ccccc1,> 100 µM,> 100 µM,> 100 µM,> 100 µM,> 100 µM,> 100 µM,> 100 µM,> 100 µM,> 100 µM,> 100 µM,> 100 µM,> 100 µM
c1ccc(-c2nn(-c3ccccc3)[n+](-c3ccccc3)n2)cc1,> 93.5 µM,> 100 µM,> 92.4 µM,> 100 µM,96.3 µM,> 100 µM,> 92.4 µM,> 100 µM,> 86.3 µM,> 100 µM,> 100 µM,14.1 µM
